Experimental data reported in ChEMBL document CHEMBL3232737, “Synthesis and in vitro evaluation of small-molecule [18F] labeled gonadotropin-releasing hormone (GnRH) receptor antagonists as potential PET imaging agents for GnRH receptor expression” (Bioorg Med Chem Lett, 2014).

Columns and labels:
[1] = target: T1, Gonadotropin-releasing hormone receptor (Rattus norvegicus, UniProt P30969); experiment: Displacement of [125I]Triptorelin from rat full-length gonadotropin-releasing hormone receptor expressed in HEK293 cells; format: cell-based
T1 sequence (P30969 whole entry): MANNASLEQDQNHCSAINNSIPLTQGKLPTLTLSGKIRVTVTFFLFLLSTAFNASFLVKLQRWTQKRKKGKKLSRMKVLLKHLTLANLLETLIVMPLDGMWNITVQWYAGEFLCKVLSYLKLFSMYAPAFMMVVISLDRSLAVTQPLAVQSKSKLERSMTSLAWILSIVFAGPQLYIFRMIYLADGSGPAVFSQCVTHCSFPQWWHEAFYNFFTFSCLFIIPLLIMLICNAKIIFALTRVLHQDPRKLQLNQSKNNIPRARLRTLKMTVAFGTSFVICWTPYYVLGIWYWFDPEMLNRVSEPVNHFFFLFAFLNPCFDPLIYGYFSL

[2] = Octanol-PBS partition coefficient, log P of the compound at 10 kBq at pH 7.4 by gamma counting analysis; format: physicochemical
[3] = target: T2, Gonadotropin-releasing hormone receptor (Mus musculus, UniProt Q01776); experiment: Binding affinity to mouse gonadotropin-releasing hormone receptor by radioligand displacement assay
T2 sequence (Q01776 whole entry): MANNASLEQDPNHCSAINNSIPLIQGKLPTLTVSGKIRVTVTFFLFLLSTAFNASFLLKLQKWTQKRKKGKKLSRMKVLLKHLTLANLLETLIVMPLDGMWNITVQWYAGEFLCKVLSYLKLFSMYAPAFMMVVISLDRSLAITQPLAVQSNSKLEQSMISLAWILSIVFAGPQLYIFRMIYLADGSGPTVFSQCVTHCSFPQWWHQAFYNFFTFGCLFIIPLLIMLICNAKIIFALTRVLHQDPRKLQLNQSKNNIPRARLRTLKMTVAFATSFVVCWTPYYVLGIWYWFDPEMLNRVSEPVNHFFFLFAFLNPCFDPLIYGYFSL

[4] = target: T3, Gonadotropin-releasing hormone receptor (Homo sapiens, UniProt P30968); experiment: Binding affinity to human gonadotropin-releasing hormone receptor by radioligand displacement assay
T3 sequence (P30968 whole entry): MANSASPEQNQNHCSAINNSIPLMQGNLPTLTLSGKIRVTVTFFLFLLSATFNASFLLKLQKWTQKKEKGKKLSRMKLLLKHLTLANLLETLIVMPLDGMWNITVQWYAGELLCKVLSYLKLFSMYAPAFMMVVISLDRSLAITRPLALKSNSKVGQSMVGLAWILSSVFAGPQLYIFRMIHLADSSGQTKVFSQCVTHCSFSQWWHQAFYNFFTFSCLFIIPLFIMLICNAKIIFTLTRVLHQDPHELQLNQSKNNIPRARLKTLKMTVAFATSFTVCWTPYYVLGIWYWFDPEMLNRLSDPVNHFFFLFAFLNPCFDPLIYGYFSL

COc1nc(F)nc(OC)c1NC(=O)c1ccc(Oc2cc3c(cc2C)CCC3(C)C)o1
Ki [1]: 42 nM

COc1nc(OCCF)nc(OC)c1NC(=O)c1ccc(Oc2cc3c(cc2C)CCC3(C)C)o1
Ki [1]: 1.36 nM

COc1nc(OCC[18F])nc(OC)c1NC(=O)c1ccc(Oc2cc3c(cc2C)CCC3(C)C)o1
logD [2]: 1.74

COc1cc(OC)c(NC(=O)c2ccc(Cc3cc4c(cc3C)C(C)(C)CCC4(C)C)o2)c(OC)c1
Ki [3]: 2.2 nM | Ki [4]: 6 nM
